Laboratory results taken from US20040214803A1, “Use of vitamin d3 analogue for the treatment of autoimmune diabetes” (priority 2001, published 2004).

Assays:
[1] = tested on: pancreas-infiltrating cells; experiment: Cytofluorimetric analysis of pancreas-infiltrating cells; type: in vivo, mouse; settings: among 8 week-old, vehicle-treated and treated mice at 30 weeks
Method: After removal of all visible pancreatic lymph nodes, pancreata were individually digested in 3 ml HBSS containing 1 mg/ml collagenase IV (Sigma), by shaking (200 rpm) at 37° C. for 15 min. Single cell suspensions were collected after diluting the enzyme with ice-cold HBSS containing 5% FCS (FETAL CALF SERUM) and removal of the aggregates by settling for 2 min on ice. Aggregates were further digested with collagenase IV at 0.5 mg/ml for 10 min, and at 0.25 mg/ml for 6 min. Single cell suspensions were washed three times, and passed over a MASC Pre-separation filter (Miltenyi Biotec) to remove cell aggragetes and clumps. […]
Single-cell suspensions of pancreas-infiltrating, spleen or lymph node cells were incubated with anti-CD4 mAb-coated Microbeads (Miltenyi Biotec) and applied onto Mini-MACS columns (Miltenyi Biotec). […] Cells were analyzed with a FACScan flow cytometer equipped with CellQuest software (Becton Dickinson, Mountain View, Calif.).
B. Consecutive sections of the same islets were stained with anti-CD4, anti-CD8, anti-B220, anti-CD11b (Mac-1), and anti-CD11c (N418) mAbs. […] Pancreas-infiltrating cells isolated from untreated 8 week-old NOD mice, vehicle-treated and Compound A treated NOD mice at 30 weeks of age were stained with mAbs specific for the indicated surface molecules and analyzed by flow cytometry. […]

CD4+ T cells = experiment: Intracellular cytokine production by CD4+ cells from treated NOD mice (PMA and ionomycin, flow cytometry); type: in vivo, mouse
Method: After removal of all visible pancreatic lymph nodes, pancreata were individually digested in 3 ml HBSS containing 1 mg/ml collagenase IV (Sigma), by shaking (200 rpm) at 37° C. for 15 min. Single cell suspensions were collected after diluting the enzyme with ice-cold HBSS containing 5% FCS (FETAL CALF SERUM) and removal of the aggregates by settling for 2 min on ice. Aggregates were further digested with collagenase IV at 0.5 mg/ml for 10 min, and at 0.25 mg/ml for 6 min. Single cell suspensions were washed three times, and passed over a MASC Pre-separation filter (Miltenyi Biotec) to remove cell aggragetes and clumps. Single cell suspensions were incubated with anti-CD4 mAb-coated Microbeads (Miltenyi Biotec) and applied onto Mini-MACS columns (Miltenyi Biotec). This procedure yielded a positive fraction containing CD4^+ cells. Immediately after purification cells were stimulated with PMA (PHORBOL MYRISTIC ACETATE) and ionomycin in complete medium, fixed, and stained the next day for intracellular production of cytokines.
Cells were stained for IFN-γ, IL-4, IL-10 and IL-2 as previously described (Trembleau, S., et al. Eur J Immunol. 1997,27:2330-2339). Reagents for intracytoplasmic staining contained 1% FCS, 0.5% saponin (Sigma), and 0.1% sodium azide. All incubations were performed at room temperature. Cells were washed, pre-incubated for 10 min with PBS(phosphate buffered saline)/FCS/saponin, and then incubated with FITC(fluorescein isothiocyanate)-labeled rat anti-mouse IFN-γ (XMG1.2) and PE (phycoerythrin)-labeled rat anti-IL-2 (JE56-5H4), rat anti-mouse IL-4 (11B11), or PE-labeled rat anti-mouse IL-10 (JES5-16E3). Isotype controls were FITC- and PE-labeled rat IgG1 (R3-34). After 30 min, cells were washed twice with PBS/FCS/saponin and then with PBS containing 5% of FCS without saponin to allow membrane closure. The cell surface was then stained with CyChrome-labeled anti-CD4 (L3T4) for 15 min at room temperature. Analysis was performed with a FACScan flow cytometer (Becton Dickinson, Mountain View, Calif.) equipped with CellQuest software, and 10,000 events were acquired.
To identify mechanisms accounting for the reduced type 1 DM development in 1,25-dihydroxy-16,23Z-diene-26,27-hexafluoro-19-nor vitamin D3-treated NOD mice, the cytokines produced by CD4^+ T cells in the spleen, pancreatic lymph node and pancreas-infiltrating cells of […] NOD mice, treated from 8 to 16 weeks of age with Compound A or vehicle were analyzed.
FIG. 4. (page 4/9) Cytokine production by CD4^+ cells from spleen, pancreatic lymph node and pancreas-infiltrating cells. Spleen (A), pancreatic lymph node (B) and pancreas-infiltrating (C) CD4^+ cells were obtained from untreated 8 week-old or 20 week-old NOD mice treated 5×/week p.o. from 8 to 16 weeks of age with vehicle or with 0.03 μg/Kg Compound A. Positively selected CD4^+ cells (2×10^5 cells/well) were stimulated with PMA and ionomycin and analyzed by flow cytometry for IFN-γ (abscissa) and IL-2, IL-4 or IL-10 (ordinate) production. Acquisition was performed on CD4^+ cells. Percentage of positive cells, set according to the isotype-matched controls (not shown), are shown in the top corner of each quadrant. Dot plots are from a representative experiment out of four performed. Bar graphs represent the mean ±SE of four independent experiments using pooled cells from 3 to 4 mice. The P values were calculated by Mann-Whitney U test (* indicates P<0.05 vs. 8 week-old NOD mice).

[2] = CD4+ T cells from pancreatic lymph nodes, vs 30 week-old vehicle-treated or 8 week-old NOD mice

## C[C@H](C/C=C\C(O)(C(F)(F)F)C(F)(F)F)C1=CC[C@H]2/C(=C/C=C3C[C@@H](O)C[C@H](O)C3)CCC[C@]12C [Compound A, 1,25-dihydroxy-16,23Z-diene-26,27-hexafluoro-19-nor vitamin D3]
[1]
  percentage of CD4+, CD8+, B220+, CD11b+ and CD11c+ pancreas-infiltrating cells: no difference
CD4+ T cells; [2]
  reduction of IFN-γ-producing cells: 3 fold
  reduction of IL-2 producing cells: 10 fold
CD4+ T cells; CD4+ cells, means of three experiments, 0.7±0.2% in 8 weeks old, 0.9±0.2% vehicle
  IL-4-producing cells: 2.5±0.3%
CD4+ T cells; CD4+ pancreas-infiltrating cells, compared with vehicle-treated mice
  IFN-γ-producing cells: similarly lower
CD4+ T cells; mouse, in vivo
  IL-10-producing CD4+ cells: No increase
